Source: paper PMC3747624, “Cloning and Characterization of EF-Tu and EF-Ts from Pseudomonas aeruginosa” (BioMed Research International, 2013)
Like-named read-outs stand apart in the source and are kept apart here.

What was measured:
P. aeruginosa EF-Tu [1] = target: T1, P. aeruginosa EF-Tu (Pseudomonas aeruginosa, UniProt P09591); experiment: GDP exchange initial velocity assay (nitrocellulose filter binding); format: biochemical; conditions: for Km: EF-Tu 0.64 μM, 37°C, Lineweaver-Burk, read-out: KM for the interaction of EF-Tu with GDP
T1 construct: made in house; host or cells: E. coli Rosetta 2(DE3), pET101/D-TOPO
T1 sequence (P09591 whole entry): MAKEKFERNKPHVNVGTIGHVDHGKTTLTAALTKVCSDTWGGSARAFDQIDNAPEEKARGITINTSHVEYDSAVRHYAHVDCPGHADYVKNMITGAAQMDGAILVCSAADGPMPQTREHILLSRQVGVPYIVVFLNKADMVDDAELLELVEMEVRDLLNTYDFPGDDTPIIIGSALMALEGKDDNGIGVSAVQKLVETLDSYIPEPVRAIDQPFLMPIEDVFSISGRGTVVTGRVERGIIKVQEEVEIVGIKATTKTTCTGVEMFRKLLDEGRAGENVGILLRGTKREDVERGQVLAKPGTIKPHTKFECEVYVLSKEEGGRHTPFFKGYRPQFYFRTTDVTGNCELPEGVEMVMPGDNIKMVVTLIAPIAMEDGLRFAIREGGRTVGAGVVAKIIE
Experimental: Nitrocellulose filter binding assays were used to determine GDP exchange by EF-Tu as previously described. Assays to determine the initial velocity of GDP exchange were in buffer B (50 mM Tris-HCl, (pH 7.5), 50 mM NH4Cl, and 10 mM MgCl2, 1.0 mM dithiothreitol (DTT)) containing 12 μM [^3H]GDP (500 cpm/pmol). Reactions were incubated at 37°C and were stopped by diluting the reaction mix to 2 mL in buffer B and immediately filtered through nitrocellulose (Whatman; Protran BA 85). Filters were washed three times with 2 mL of buffer B and allowed to dry, and the amount of EF-Tu·[^3H]GDP complex retained was determined by scintillation counting (Beckman Coulter LS 6500). Initial velocity reactions were from 1 to 4 min, and GDP concentrations were varied as indicated.
Historically, the GDP exchange assay has been used to determine the activity of EF-Tu. […] The kinetic parameters KM and Vmax for the interaction of P. aeruginosa EF-Tu with GDP were determined by inserting the initial velocity data into Lineweaver-Burk plots (Figure 4(b)).

P. aeruginosa EF-Tu [2] = target: T1, P. aeruginosa EF-Tu; experiment: Equilibrium dissociation constants of EF-Tu·GDP and EF-Tu·GTP complexes (dilution, nitrocellulose filter binding)
Experimental: Reactions were carried out to determine the equilibrium dissociation constants (K GDP and K GTP) for the interaction of P. aeruginosa EF-Tu with GDP and GTP. The reaction was carried out in buffer B containing 1.3 μM total P. aeruginosa EF-Tu and 12 μM [^3H]GDP (500 cpm/pmol) or [^3H]GTP (750 cpm/pmol). EF-Ts was added to 0.05 μM as indicated. To form EF-Tu·nucleotide complexes, the reactions were incubated for 2 h at 0°C. To determine the total amount of complex formed (defined as active amounts of EF-Tu), reactions were immediately filtered through nitrocellulose filters following incubation. Reactions to determine K GDP and K GTP were diluted by the addition of 5 mL of buffer B that had been preincubated at 37°C, 23°C, or 0°C. Incubation was continued at those temperatures after dilution for 10, 20, and 30 min, respectively. Remaining amounts of the complexes were determined by filtration through nitrocellulose filters.
The percentage of EF-Tu capable of exchanging GDP (active EF-Tu) was determined from assays described in Section 3.6 which measured the total EF-Tu·[^3H]GDP complexes formed. In these assays, saturating amounts of [^3H]GDP (12 μM) were incubated with EF-Tu on ice for 2 h, and the total labeled EF-Tu·[^3H]GDP complex was determined using nitrocellulose filter binding, which retained the complex but not free GDP. The maximum amount of EF-Tu·GDP complex observed would be equivalent to the concentration of EF-Tu capable of exchanging GDP. Approximately 50% of EF-Tu was capable of forming an EF-Tu·[^3H]GDP complex. In the subsequent experiments containing EF-Tu, the results were based on the concentration of active EF-Tu.
The equilibrium dissociation constants for the EF-Tu·GDP (K GDP) and EF-Tu·GTP (K GTP) complexes were calculated from measurements of the extent of dissociation of the complexes in dilute solutions. Both complexes were formed by incubation at […] for 2 h in 50 μL reactions (Section 3.3). […] To determine dissociation, the 50 μL reactions were diluted by addition of 5 mL of reaction mix (minus enzyme and nucleotide) that had been preincubated to 37°C, 23°C, or 0°C, and incubation was continued at these temperatures for 10, 20, and 30 min, respectively. These were the conditions used to determine the K GDP for interaction of E. coli EF-Tu with GDP, and we maintained the same conditions in the determination of the K GTP.
The concentration of complex immediately after dilution was approximately 6.0 × 10^−3 μM. After incubation, the remaining EF-Tu·GDP complex was determined. Total GDP was calculated as the amount of added [^3H]GDP plus GDP that had copurified with EF-Tu. Free GDP was the amount of total GDP minus complexes formed, and free EF-Tu was the amount of initial complex minus remaining complex. The equilibrium dissociation constants for the complexes were calculated using the following equation: (1) KGD/TP=[EF−Tufree][GD/TPfree]/[EF−Tu·GD/TP]. We observed KGDP values for EF-Tu that ranged from 30 to 75 nM in the absence of EF-Ts at the temperatures in which the EF-Tu·GDP complex was allowed to dissociate (Table 2). Previous studies to determine the KGDP governing the binding of GDP to EF-Tu in the E. coli system included EF-Ts in the assays, and therefore we also carried out assays to determine the KGDP in the presence of EF-Ts. There was no statistical change of the KGDP observed in the presence of EF-Ts (30 to 40 nM). These values are within 3-fold of that seen in the E. coli system in which the equilibrium dissociation constant (5 to 10 nM) was determined in the presence of EF-Ts.

E. coli EF-Tu = conditions: cited from earlier work
P. aeruginosa ribosomes = experiment: Poly(U)-dependent binding of Phe-tRNA^Phe ternary complex to the ribosomal A-site; format: biochemical, Pseudomonas aeruginosa; conditions: 3.2 μM EF-Tu, 1 μM ribosomes, GDPNP
Experimental: To determine ternary complex binding to the ribosome, a mixture containing 50 mM Tris-HCl, (pH 7.5), 0.1 mM spermine, 40 mM KCl, 4 mM MgCl2, 1.0 mM DTT, 0.3 mM GTP or guanosine 5′-[β,γ-imido]triphosphate (GDPNP), 0.15 mg/mL poly(U) mRNA, 0.06 μM P. aeruginosa EF-Ts, 3.2 μM EF-Tu, 1.0 μM P. aeruginosa ribosomes, and 0.75 μM [^3H]Phe-tRNA^Phe (25 cpm/pmol) was used. The concentration of EF-Tu was varied from 0.32 to 1.6 μM as indicated. All components were preincubated at 37°C for 15 min in the absence of ribosomes to allow ternary complex formation. Ribosomes were then added, and incubation was continued for an additional 15 min at the same temperature. The amounts of [^3H]Phe-tRNA^Phe bound to the ribosome, representing ternary complex, were analyzed using glass microfiber filter (Whatman) binding as previously described. Control reactions lacked either EF-Tu or ribosomes.
Aminoacylated tRNA is bound at the ribosomal A-site in a ternary complex. The amount of aminoacylated tRNAs that can be bound to the A-site of the ribosome in a ternary complex was measured using [^3H]Phe-tRNA^Phe in poly(U)-dependent assays. In the absence of poly(U), a basal level of ternary complex will bind to the ribosome. In these assays, GTP was replaced with the nonhydrolyzable analog GDPNP to prevent hydrolysis of the nucleotide and dissociation of EF-Tu. […]

Leu-tRNA^Leu and GTP = Leu-tRNA^Leu and GTP (Pseudomonas aeruginosa, UniProt P09591); conditions: 1.2 μM [3H]Leu-tRNA^Leu, 0.5 mM GTP, 15 min 4°C, RNase A
Sequence of Leu-tRNA^Leu and GTP (P09591 whole entry): as above
Experimental: Ternary complex formation was assayed by examining the ability of EF-Tu to protect [^3H]Leu-tRNA^Leu ) from digestion by RNase A [21, 22]. EF-Tu (0, 0.6, 0.9, 1.2, 1.5, 1.8, 2.1, and 2.4 μM) was incubated in reaction mixtures (50 μL) containing 1.2 μM [^3H]Leu-tRNA^Leu, 0.5 mM GTP, 50 mM Tris-HCl, (pH 7.5), 1 mM DTT, 50 mM NH4Cl, and 6.5 mM MgCl2 for 15 min at 4°C. RNAase A was then added to a final concentration of 0.02 mg/mL and incubated for an additional 20 s. The reactions were stopped by the addition of 3 mL of ice-cold 5% trichloroacetic acid (TCA) and filtered through nitrocellulose filters (Whatman). Retention of [^3H]Leu signified EF-Tu protection of [^3H]Leu-tRNA^Leu from nuclease digestion [22].
To determine the ability of P. aeruginosa EF-Tu to form a ternary complex with Leu-tRNA^Leu and GTP, the nuclease protection assay was used [19, 22]. The nuclease protection assay measures the formation of a ternary complex by the ability of EF-Tu to protect the 3′ end of the tRNA with the covalently attached [^3H]Leu from digestion by RNase A [45]. […] Reactions contained enough RNase A to hydrolyze over 90% of the leucine away from tRNA^Leu .

[3] = target: Pseudomonas aeruginosa elongation factor Tu (Pseudomonas aeruginosa PAO1) (UniProt P09591)
Sequence of Pseudomonas aeruginosa elongation factor Tu (Pseudomonas aeruginosa PAO1) (P09591 whole entry): as above

In the case of `Nc1nc2c(ncn2[C@@H]2O[C@H](COP(=O)(O)OP(=O)(O)O)[C@@H](O)[C@H]2O)c(=O)[nH]1` [GDP], the “kcat obs for exchange of GDP by EF-Tu” value (P. aeruginosa EF-Tu [1]; absence of EF-Ts) is reported as 0.003 s⁻¹, the Km (P. aeruginosa EF-Tu [1]; absence of EF-Ts) is reported as 33 µM and the “kcat obs for exchange of GDP by EF-Tu” value (P. aeruginosa EF-Tu [1]; presence of EF-Ts 0.01 μM) is reported as 0.005 s⁻¹. It also gave a Km (P. aeruginosa EF-Tu [1]; presence of EF-Ts 0.01 μM) of 2 µM, a Kd (P. aeruginosa EF-Tu [2]; EF-Ts 0, 0°C, read-out: K GDP) of 58 nM and a Kd (P. aeruginosa EF-Tu [2]; EF-Ts 0, 23°C, read-out: K GDP) of 38 nM. For the same molecule, the Kd (P. aeruginosa EF-Tu [2]; EF-Ts 0, 37°C, read-out: K GDP) was 72 nM, the Kd (P. aeruginosa EF-Tu [2]; EF-Ts 0.5 ×10^−3 μM, 0°C, read-out: K GDP) was 43 nM and the Kd (P. aeruginosa EF-Tu [2]; EF-Ts 0.5 ×10^−3 μM, 23°C, read-out: K GDP) was 30 nM. The Kd (P. aeruginosa EF-Tu [2]; EF-Ts 0.5 ×10^−3 μM, 37°C, read-out: K GDP) was 34 nM and the “GDP bound more tightly than GTP” value (E. coli EF-Tu) was “up to 100 fold”.

In the case of `Nc1nc2c(ncn2[C@@H]2O[C@H](COP(=O)(O)OP(=O)(O)OP(=O)(O)O)[C@@H](O)[C@H]2O)c(=O)[nH]1` [GTP], the Kd (P. aeruginosa EF-Tu [2]; EF-Ts 0, 0°C, read-out: K GTP) is reported as 150 nM, the Kd (P. aeruginosa EF-Tu [2]; EF-Ts 0, 23°C, read-out: K GTP) is reported as 123 nM and the Kd (P. aeruginosa EF-Tu [2]; EF-Ts 0, 37°C, read-out: K GTP) is reported as 175 nM. For the same molecule, the Kd (P. aeruginosa EF-Tu [2]; EF-Ts 0.5 ×10^−3 μM, 0°C, read-out: K GTP) was 156 nM, the Kd (P. aeruginosa EF-Tu [2]; EF-Ts 0.5 ×10^−3 μM, 23°C, read-out: K GTP) was 125 nM and the Kd (P. aeruginosa EF-Tu [2]; EF-Ts 0.5 ×10^−3 μM, 37°C, read-out: K GTP) was 190 nM. The “binding of GTP weaker than binding of GDP (KGTP vs KGDP)” value (P. aeruginosa EF-Tu [2]; P. aeruginosa EF-Tu) was “up to 6 fold”.

For “EF-Tu: recombinant elongation factor Tu from Pseudomonas aeruginosa, cloned, expressed and purified”, the “specific activity for the exchange of GDP by EF-Tu” value (P. aeruginosa EF-Tu [1]; absence of EF-Ts) was 0.0047 µmol/min/mg, the “EF-Tu capable of forming an EF-Tu·[3H]GDP complex (active EF-Tu)” value (P. aeruginosa EF-Tu [2]; 12 μM [3H]GDP, on ice 2 h) was “Approximately 50%” and the “EF-Tu forming a complex with each form of the nucleotide (GDP, GTP)” value (P. aeruginosa EF-Tu [2]; incubation 2 h in 50 μL reactions) was “approximately 50%”. For the same molecule, the “share of the ternary complex formed that bound to the ribosome” value (P. aeruginosa ribosomes; 15 min) was “approximately 90%”, the “ribosomes with ternary complex bound to the A-site” value (P. aeruginosa ribosomes; within 15 min, 37°C) was “approximately 50%” and the “EF-Tu active in ternary complex formation” value (Leu-tRNA^Leu and GTP) was “Up to 20%”.

B1: Pseudomonas aeruginosa elongation factor Ts (natural protein)
chain: AEITAAMVKELRERTGLGMMECKKALTAAGGDIEKAIDDMRAAGAIKAAKKAGNIAAEGSIAVKIAADNKAAVIIEVNSQTDFLALQDDFKGFVAESLEKAFNEKLTDAAPLVEAREEARLALVAKTGENVNIRRLTRVEGDVVGAYLHGHRIGVVVNLKGGNPELAKDIAMHVAASNPQFLSASEVSEEAIAKEKEIFLALNADKIAGKPENIVENMVKGRISKFLAEASLVEQPFVKNPEVKVGDLAKQAGAEIVSFVRYEVGEGIEKAEVDFAAEVAAQVAATKQ
B1 showed a [3H]GDP exchange by EF-Tu (0.64 uM, 1 uM GDP) with 0.05 uM EF-Ts against without EF-Ts, nitrocellulose filter binding, 15 to 120 s, 37°C [3] of 7 to 8 fold.
